Experimental data from ChEMBL document CHEMBL1142592, “Additional pyrrolomycins from cultures of Streptomyces fumanus” (2005).
In brackets after ≈: the same amount, converted by molar mass.

Key:
Format in all cases: functional
Staphylococcus aureus [1] = assay: Antimicrobial activity against wild type Staphylococcus aureus by agar dilution method
Escherichia coli [2] = assay: Antimicrobial activity against permeability mutant Escherichia coli imp by agar dilution method
Escherichia coli [3] = assay: Antimicrobial activity against wild type Escherichia coli by agar dilution method
Staphylococcus aureus [4] = assay: Antimicrobial activity against methicillin-resistant Staphylococcus aureus by agar dilution method
Enterococcus faecium = assay: Antimicrobial activity against vancomycin-resistant Enterococcus faecium by agar dilution method

In the case of `COc1c(Cl)cc(Cl)cc1C(=O)c1[nH]c(Cl)c(Cl)c1Cl` [PYRROLOMYCIN J], the MIC (Staphylococcus aureus [1]) is reported as 1 µg/mL (≈ 2.68 µM), the MIC (Escherichia coli [2]) is reported as 8 µg/mL (≈ 21.4 µM) and the MIC (Escherichia coli [3]) is reported as greater than 128 µg/mL. For the same compound, the MIC (Staphylococcus aureus [4]) was 2 µg/mL (≈ 5.36 µM).

Work on `COc1c(Cl)cc(Cl)cc1[C@H](O)c1[nH]c(Cl)c(Cl)c1[N+](=O)[O-]` [PYRROLOMYCIN H] yielded an MIC (Staphylococcus aureus [1]) of 1 µg/mL (≈ 2.59 µM), an MIC (Escherichia coli [2]) of 4 µg/mL (≈ 10.4 µM) and an MIC (Escherichia coli [3]) of 128 µg/mL (≈ 332 µM). The MIC (Staphylococcus aureus [4]) was 2 µg/mL (≈ 5.18 µM).

`O=[N+]([O-])c1c([C@@H](O)c2cc(Cl)cc(Cl)c2O)[nH]c(Cl)c1Cl` [PYRROLOMYCIN G] gave an MIC (Staphylococcus aureus [1]) of 8 µg/mL (≈ 21.5 µM), an MIC (Escherichia coli [2]) of 32 µg/mL (≈ 86 µM) and an MIC (Escherichia coli [3]) greater than 128 µg/mL. For the same compound, the MIC (Enterococcus faecium) was 8 µg/mL (≈ 21.5 µM) and the MIC (Staphylococcus aureus [4]) was 8 µg/mL (≈ 21.5 µM).
